# Experimental data published in patent US8618103B2 (priority 2009, dated 2013).
row,SMILES,melting point [°C]
1,"COC(=O)N1CC[C@@H](Nc2ncccc2-c2cnc3[nH]ccc3n2)C1 [Example I-4, (R)-3-[3-(5H-Pyrrolo[2,3-b]pyrazin-2-yl)-pyridin-2-ylamino]-pyrrolidine-1-carboxylic acid methyl ester]",221 to 224
2,"CS(=O)(=O)N1CC[C@@H](Nc2ncccc2-c2cnc3[nH]ccc3n2)C1 [Example I-5, ((R)-1-Methanesulfonyl-pyrrolidin-3-yl)-[3-(5H-pyrrolo[2,3-b]pyrazin-2-yl)-pyridin-2-yl]-amine]",224 to 226
3,"COC(=O)N1CC[C@H](Nc2ncccc2-c2cnc3[nH]ccc3n2)C1 [Example I-10, (S)-3-[3-(5H-Pyrrolo[2,3-b]pyrazin-2-yl)-pyridin-2-ylamino]-pyrrolidine-1-carboxylic acid methyl ester]",222 to 225
4,"CS(=O)(=O)N1CC[C@H](Nc2ncccc2-c2cnc3[nH]ccc3n2)C1 [Example I-11, ((S)-1-Methanesulfonyl-pyrrolidin-3-yl)-[3-(5H-pyrrolo[2,3-b]pyrazin-2-yl)-pyridin-2-yl]-amine]",222 to 224
5,"CC(=O)N1CCCCC(Nc2ncccc2-c2cnc3[nH]ccc3n2)C1 (stereo not shown) [Example I-12, 1-{3-[3-(5H-Pyrrolo[2,3-b]pyrazin-2-yl)-pyridin-2-ylamino]-azepan-1-yl}-ethanone]",100 to 110
6,"COC(=O)N1CCCCC(Nc2ncccc2-c2cnc3[nH]ccc3n2)C1 (stereo not shown) [Example I-13, 3-[3-(5H-Pyrrolo[2,3-b]pyrazin-2-yl)-pyridin-2-ylamino]-azepane-1-carboxylic acid methyl ester]",90 to 100
7,"CS(=O)(=O)N1CCCCC(Nc2ncccc2-c2cnc3[nH]ccc3n2)C1 (stereo not shown) [Example I-14, (1-Methane-sulfonyl-azepan-3-yl)-[3-(5H-pyrrolo[2,3-b]pyrazin-2-yl)-pyridin-2-yl]-amine]",213 to 216
8,"CCS(=O)(=O)N1CC[C@@H](Nc2ncccc2-c2cnc3[nH]ccc3n2)C1 [Example I-16, ((R)-1-Ethanesulfonyl-pyrrolidin-3-yl)-[3-(5H-pyrrolo[2,3-b]pyrazin-2-yl)-pyridin-2-yl]-amine]",230 to 232
9,"CCCS(=O)(=O)N1CC[C@@H](Nc2ncccc2-c2cnc3[nH]ccc3n2)C1 [Example I-17, [(R)-1-(Propane-1-sulfonyl)-pyrrolidin-3-yl]-[3-(5H-pyrrolo[2,3-b]pyrazin-2-yl)-pyridin-2-yl]-amine]",198 to 200
10,"CC(C)S(=O)(=O)N1CC[C@@H](Nc2ncccc2-c2cnc3[nH]ccc3n2)C1 [Example I-18, [(R)-1-(Propane-2-sulfonyl)-pyrrolidin-3-yl]-[3-(5H-pyrrolo[2,3-b]pyrazin-2-yl)-pyridin-2-yl]-amine]",187 to 189
11,"CC(C)CS(=O)(=O)N1CC[C@@H](Nc2ncccc2-c2cnc3[nH]ccc3n2)C1 [Example I-19, [(R)-1-(2-Methyl-propane-1-sulfonyl)-pyrrolidin-3-yl]-[3-(5H-pyrrolo[2,3-b]pyrazin-2-yl)-pyridin-2-yl]-amine]",134 to 137
12,"CCC(=O)N1CC[C@@H](Nc2ncccc2-c2cnc3[nH]ccc3n2)C1 [Example I-20, 1-{(R)-3-[3-(5H-Pyrrolo[2,3-b]pyrazin-2-yl)-pyridin-2-ylamino]-pyrrolidin-1-yl}-propan-1-one]",105 to 110
13,"CCCC(=O)N1CC[C@@H](Nc2ncccc2-c2cnc3[nH]ccc3n2)C1 [Example I-21, 1-{(R)-3-[3-(5H-Pyrrolo[2,3-b]pyrazin-2-yl)-pyridin-2-ylamino]-pyrrolidin-1-yl}-butan-1-one]",115 to 120
14,"CCCS(=O)(=O)N1C[C@@H](C)C[C@H](Nc2ncccc2-c2cnc3[nH]ccc3n2)C1 [Example I-25, [(3S,5S)-5-Methyl-1-(propane-1-sulfonyl)-piperidin-3-yl]-[3-(5H-pyrrolo[2,3-b]pyrazin-2-yl)-pyridin-2-yl]-amine]",178 to 180
15,"CC(C)CCS(=O)(=O)N1CC[C@@H](Nc2ncccc2-c2cnc3[nH]ccc3n2)C1 [Example I-27, [(R)-1-(3-Methyl-butane-1-sulfonyl)-pyrrolidin-3-yl]-[3-(5H-pyrrolo[2,3-b]pyrazin-2-yl)-pyridin-2-yl]-amine]",160 to 162
16,"Cc1ccc(-c2cnc3[nH]ccc3n2)c(NC2CCCN(S(C)(=O)=O)C2)n1 (stereo not shown) [Example I-31, (1-Methane-sulfonyl-piperidin-3-yl)-[6-methyl-3-(5H-pyrrolo[2,3-b]pyrazin-2-yl)-pyridin-2-yl]-amine]",253 to 255
17,"FC(F)(F)CN1CCC[C@H](Nc2ncccc2-c2cnc3[nH]ccc3n2)C1 [Example I-33, [3-(5H-Pyrrolo[2,3-b]pyrazin-2-yl)-pyridin-2-yl]-[(S)-1-(2,2,2-trifluoro-ethyl)-piperidin-3-yl]-amine]",207 to 209
18,"CCS(=O)(=O)N1CCCC(Nc2nc(C)ccc2-c2cnc3[nH]ccc3n2)C1 (stereo not shown) [Example I-34, (1-Ethane-sulfonyl-piperidin-3-yl)-[6-methyl-3-(5H-pyrrolo[2,3-b]pyrazin-2-yl)-pyridin-2-yl]-amine]",204 to 207
19,"Cc1ccc(-c2cnc3[nH]ccc3n2)c(NC2CCCN(S(=O)(=O)CC(C)(C)C)C2)n1 (stereo not shown) [Example I-36, [1-(2,2-Dimethyl-propane-1-sulfonyl)-piperidin-3-yl]-[6-methyl-3-(5H-pyrrolo[2,3-b]pyrazin-2-yl)-pyridin-2-yl]-amine]",218 to 220
20,"CS(=O)(=O)N1CCCC(Nc2ncccc2-c2cnc3[nH]ccc3n2)CC1 (stereo not shown) [Example I-37, (1-Methane-sulfonyl-azepan-4-yl)-[3-(5H-pyrrolo[2,3-b]pyrazin-2-yl)-pyridin-2-yl]-amine]",215 to 217
21,"O=S(=O)(CC1CC1)N1CCC[C@H](Nc2ncccc2-c2cnc3[nH]ccc3n2)C1 [Example I-38, ((S)-1-Cyclopropyl-methanesulfonyl-piperidin-3-yl)-[3-(5H-pyrrolo[2,3-b]pyrazin-2-yl)-pyridin-2-yl]-amine]",209 to 212
22,"CC(=O)N1CCCC(Nc2nc(C)ccc2-c2cnc3[nH]cc(Cl)c3n2)C1 (stereo not shown) [Example I-39, 1-{3-[3-(7-Chloro-5H-pyrrolo[2,3-b]pyrazin-2-yl)-6-methyl-pyridin-2-ylamino]-piperidin-1-yl}-ethanone]",254 to 259
